Counter-ions that a name gives are not always drawn. Like-named read-outs stand apart in the source and are kept apart here.
What was measured:
Cdk4 = Cdk4 (Homo sapiens, UniProt P11802); assay: Cdk4 inhibition; format: biochemical
Source text: Further inhibition results for subject compounds of the invention against other CDKs and further kinases are shown in Table 5, Table II and described in Example 6.
Table 3, Table 4, Table 5 and Table II show the results obtained for inhibition of a broad range of such kinases for subject compounds of the invention.

JNK1α1 = molecular target: T1, JNK1α1 (Homo sapiens, UniProt P45983); assay: JNK1α1 kinase assay; format: biochemical
T1 construct: purchased Upstate 14-327
Method: • 1. 10× Reaction Buffer: 500 mM Tris-HCl pH 7.5, 1 mM EGTA, 1% 2-mercaptoethanol. • 2. Enzyme Dilution Buffer (EDB): 50 mM Tris-HCl pH 7.5, 0.1 mM EGTA, 0.1% 2-mercaptoethanol, 1 mg/ml BSA. • 3. JNK 11/SAPK1c, active: Dilute to 0.4-8 ng/μl with EDB. Use […] per assay point. • 4. ATF2 (amino acids 19-96) (Catalog #12-367): Prepare a 1.08 mg/ml stock. Use 2.5 μl per assay point for a final concentration of 3 μM per assay point. • 5. Magnesium/ATP Cocktail (Catalog #20-113): 75 mM MgCl2 and 500 μM ATP in 20 mM MOPS, pH 7.2, 25 mM β-glycerol phosphate, 5 mM EGTA, 1 mM sodium orthovanadate, 1 mM dithiothreitol. • 6. [γ-^32P]ATP: Stock 1 mCi/100 μl (3000 Ci/mmol, obtained from PerkinElmer, Cat. # BLU002A). Make 10 μl aliquots (100 μCi/vial). Before starting the assay, dilute an aliquot to 1 μCi/μl with 90 μl of Magnesium/ATP Cocktail diluted 1:2 with sterile, distilled water. […]
• 1. Add 2.5 μl of 10× Reaction Buffer per assay. • 2. Add 2.5 μl of ATF2 (amino acids 19-96). • 3. Add 2.5 μl (1-20 ng) JNK1α1/SAPK1c, active. • 4. Add 7.5 μl of sterile, distilled water. • 5. Add 10 μl of the diluted [γ-^32P]ATP mixture. • 6. Incubate for 10 minutes at 30° C. • 7. Transfer a 20 μl aliquot onto the center of a 2 cm×2 cm P81 paper. • 8. Wash the assay squares three times for 5 minutes with 0.75% phosphoric acid. • 9. Wash the assay squares once for 5 minutes with acetone. • 10. Transfer the assay squares to vial and add 5 ml scintillation cocktail. • 11. Read in scintillation counter. Compare cpm of enzyme samples to cpm of control samples that contain background control.

Lck = molecular target: T2, Lck (Homo sapiens, UniProt P06239); assay: Lck kinase assay; format: biochemical
T2 construct: purchased Upstate 14-442
Method: • 1. Assay Buffer: 200 mM Tris-HCl pH 7.5, 0.4 mM EGTA, 0.4 mM sodium orthovanadate. • 2. Enzyme Dilution Buffer (EDB): 20 mM MOPS, pH 7.5, 1 mM EDTA, 0.01% Brij-35, 5% glycerol, 0.1% β-mercaptoethanol, 1 mg/ml BSA. • 3. Lck, active: Dilute to 10-100 ng/μl with EDB. Use 2.5 μl per assay point. • 4. Src Substrate Peptide (Catalog #12-140): Prepare a 2.5 mM stock with sterile, distilled water. Use 2.5 μl per assay point for a final concentration of 250 μM per assay. • 5. Magnesium/ATP Cocktail (Catalog #20-113): 500 μM cold ATP and 75 mM magnesium chloride in 20 mM MOPS, pH 7.2, 25 mM β-glycerophosphate, 5 mM EGTA, 1 mM Na3VO4, 1 mM dithiothreitol. • 6. [γ-^32P]ATP: Stock 1 mCi/100 μl (3000 Ci/mmol, obtained from PerkinElmer, Catalog #BLU002A). Make 10 μl aliquots (100 μCi/vial). Before starting the assay, dilute the Magnesium/ATP Cocktail 1:1 with sterile, distilled water. Then dilute an aliquot of [γ-^32P]ATP to 1 μCi/μl with 90 μl of the diluted Magnesium/ATP Cocktail. […]
• 1. Add 6.25 μl of Assay Buffer per assay. • 2. Add 2.5 μl (25-250 ng) of Lck, active. • 3. Add 2.5 μl Src Substrate peptide (250 μM). • 4. Add 3.75 μl distilled water. • 5. Add 10 μl of the diluted [γ-^32P]ATP solution. • 6. Incubate for 10 minutes at 30° C. • 7. Transfer a 20 μl aliquot onto the center of a 2 cm×2 cm P81 paper. • 8. Wash assay squares five times with 0.75% phosphoric acid for 5 minutes per wash. • 9. Wash assay squares once with acetone for 5 minutes. • 10. Transfer assay squares to a scintillation vial and add 5 ml scintillation cocktail. • 11. Read in scintillation counter. Compare cpm of enzyme samples to cpm of control samples that contain no substrate (background control).

CEM = assay: SRB cytotoxicity, CEM parental cells; format: cell-based; details: Homo sapiens, CCRF-CEM, 72 h
Method: (§1) In these experiments, the P-glycoprotein expressing NCI-Adr resistant subline (Vickers et al., 1989. Mol Endocrinology 3 (1):157-164) was used. […] Briefly, cells were plated in 96 well dishes 24 hours prior to compound addition. Where noted, they were exposed to verapamil for 4 hours prior to compound addition and then throughout the treatment period (72 hours). The assay was terminated with the addition of cold TCA to a final concentration of 10% and the plates were incubated for one hour at 4° C. The plates were then washed 5 times with water and 100 μl of a Sulforhodamine B solution (4%) was added to each well. The plate was then incubated for 10 minutes at room temperature before removal of unbound dye by washing with 1% acetic acid.
(§2) The Camptothecin resistant CEM/C2 cells were derived from the T lymphoblastoid leukemia cell line CCRF/CEM by selection in the presence of Camptothecin in vitro (Kapoor et al., 1995. Oncology Research 7; 83-95, ATCC).
(§3) The effects of A37 and B16 were evaluated in the CCRF/CEM and CEM/C2 cells using the same SRB assay as described above, with 72-hour drug exposure.

CEM/C2 = assay: SRB cytotoxicity, camptothecin resistant cells; format: cell-based, human; details: for IC50: Homo sapiens, CEM/C2, 72 h, SRB
Method: as §1, §2, §3

[1] = kinase panel, 10 μM ATP, read-out: JNK1α1 IC50
[2] = read-out: MAPK8 Inhibition (IC50)
[3] = read-out: LCK Inhibition (IC50)

T1 sequence (P45983 1-384 isoform P45983-2, species assumed): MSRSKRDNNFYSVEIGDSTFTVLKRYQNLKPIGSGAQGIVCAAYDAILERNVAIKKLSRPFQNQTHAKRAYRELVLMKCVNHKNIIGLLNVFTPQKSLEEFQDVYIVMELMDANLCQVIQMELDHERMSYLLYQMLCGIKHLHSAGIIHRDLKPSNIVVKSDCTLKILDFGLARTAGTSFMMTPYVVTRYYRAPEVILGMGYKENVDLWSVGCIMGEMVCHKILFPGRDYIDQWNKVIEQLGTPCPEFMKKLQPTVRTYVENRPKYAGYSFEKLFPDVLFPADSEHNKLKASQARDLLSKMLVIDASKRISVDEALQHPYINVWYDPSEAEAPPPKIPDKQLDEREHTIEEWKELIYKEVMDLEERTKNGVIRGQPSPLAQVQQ
T2 sequence (P06239 whole entry): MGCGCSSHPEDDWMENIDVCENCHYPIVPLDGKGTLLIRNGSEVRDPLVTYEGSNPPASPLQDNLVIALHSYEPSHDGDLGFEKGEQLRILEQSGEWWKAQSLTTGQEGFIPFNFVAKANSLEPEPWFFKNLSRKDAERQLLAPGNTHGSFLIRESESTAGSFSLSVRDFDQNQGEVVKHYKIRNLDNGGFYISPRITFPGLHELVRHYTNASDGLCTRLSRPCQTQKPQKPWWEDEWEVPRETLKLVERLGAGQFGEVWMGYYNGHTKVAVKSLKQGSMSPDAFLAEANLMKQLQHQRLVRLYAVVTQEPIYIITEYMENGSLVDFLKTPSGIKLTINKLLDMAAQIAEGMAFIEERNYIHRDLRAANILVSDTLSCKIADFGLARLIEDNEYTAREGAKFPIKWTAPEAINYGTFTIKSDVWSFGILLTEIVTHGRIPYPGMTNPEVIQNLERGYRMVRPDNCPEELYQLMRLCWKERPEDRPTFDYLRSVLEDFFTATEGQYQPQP
Sequence of Cdk4 (P11802 whole entry, species assumed): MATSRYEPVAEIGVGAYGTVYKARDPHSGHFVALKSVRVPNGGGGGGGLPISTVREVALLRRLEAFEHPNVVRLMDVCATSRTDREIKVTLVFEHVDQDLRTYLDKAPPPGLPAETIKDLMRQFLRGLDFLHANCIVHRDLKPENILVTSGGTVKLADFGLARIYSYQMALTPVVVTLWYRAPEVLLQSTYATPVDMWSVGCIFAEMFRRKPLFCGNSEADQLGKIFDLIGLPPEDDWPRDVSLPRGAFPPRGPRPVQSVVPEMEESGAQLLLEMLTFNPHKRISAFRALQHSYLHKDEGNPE
Sequence of Cdk4 (P24385 whole entry partner, species assumed): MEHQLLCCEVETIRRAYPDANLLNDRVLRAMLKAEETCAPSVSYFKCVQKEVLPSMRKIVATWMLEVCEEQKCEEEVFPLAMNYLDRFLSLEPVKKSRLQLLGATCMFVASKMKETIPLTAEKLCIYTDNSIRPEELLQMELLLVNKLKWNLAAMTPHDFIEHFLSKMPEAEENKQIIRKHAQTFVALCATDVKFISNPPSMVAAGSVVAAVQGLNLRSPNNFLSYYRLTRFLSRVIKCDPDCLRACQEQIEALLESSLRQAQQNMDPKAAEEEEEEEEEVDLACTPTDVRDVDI

Compound	IC50 (Cdk4) [nM]	IC50 (JNK1α1; [1]) [nM]	IC50 (JNK1α1; [2]) [nM]	IC50 (Lck; [3]) [nM]	IC50 (CEM) [nM]	RR (relative resistance) CEM/C2 vs CEM (CEM/C2)	IC50 (CEM/C2) [nM]	IC50 (Lck; kinase panel, 10 μM ATP, read-out: Lck (Lymphocyte kinase) IC50) [nM]
CC(C)N1CCN(C(=O)COc2ccc(-c3n[nH]c4c3C(=O)c3c(NC(=O)NN5CCOCC5)cccc3-4)cc2)CC1 [Compound A37]	< 50	10 to 100	< 50	< 50	21.3	0.72	15.3	
COCCN1CCN(Cc2ccc(-c3n[nH]c4c3C(=O)c3c(NC(=O)NN5CCOCC5)cccc3-4)cc2)CC1 [Compound B16, N-[3-(4-{[4-(2-methoxyethyl)piperazinyl]methyl}phenyl)-4-oxoindeno[2,3-d]pyrazol-5-yl](morpholin-4-ylamino)carboxamide dihydrochloride]	> 100	< 100	< 100	< 50	25	1.01	25.3	< 100

Source: patent US20080146555A1, “Uses of Kinase Inhibitors and Compositions Thereof” (GPC Biotech, Inc, priority 2004, published 2008)
